This note sets out measurements from the supplement of paper PMC11061612.

Experiment [1] deals with BICR22 (Oral Cavity Carcinoma). The experiment is described as follows: Bliss excess, mean over the matrix (fraction); higher = more synergy. In a few lines: (§1)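 Cell lines grown in DMEM/F12 or RPMI with 10% FBS were plated in 1536-well plates and held 24 hours at 37°C, 5% CO2 before 72 hours of exposure to two-drug dose matrices, with DMSO typically at 0.2%. CellTiter-Glo 2.0 luminescence gave viability, which was converted to inhibition. Vehicle wells were set to 0 and blank wells to 1. Combination Emax is the second-highest inhibition in the matrix, and Bliss excess is the observed combination effect minus the expected EA + EB − EA·EB, where EA and EB are the single-agent effects.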

Experiment [2] relates to CAPAN-2 (Pancreatic Carcinoma). The description is as above. In a few lines:
as §1

Experiment [3] relates to CCK-81 (Colorectal Carcinoma). The experiment is described as above. In a few lines: as §1
Experiment [4] has as its system COLO-320-HSR (Colorectal Carcinoma). The experiment is described as above. The method in brief: as §1
Experiment [5] concerns ECC10 (Gastric Carcinoma). Described as above. The method in brief: as §1
In another experiment the test system is FU97 (Gastric Carcinoma). The experiment is described as above. In a few lines:
as §1

For experiment [6], the system named is HCC1954 (Breast Carcinoma). The experiment is described as above. In a few lines: as §1
Experiment [7] has as its system IGR-37 (Melanoma). Described as above. The method in brief: as §1
Experiment [8] deals with KARPAS-422 (B-Cell Non-Hodgkin's Lymphoma). Described as above. The method in brief:
as §1

A further experiment concerns LN-405 (Glioblastoma). Described as above. In a few lines:
as §1

The subject of experiment [9] is NCI-H1581 (Non-Small Cell Lung Carcinoma). The experiment is described as above. In a few lines:
as §1

The subject of experiment [10] is NCI-H1666 (Lung Adenocarcinoma). Described as above. The method in brief: as §1
A further experiment has as its system NCI-H2591 (Mesothelioma). Described as above. In a few lines:
as §1

Another experiment has as its system NY (Osteosarcoma). Described as above. In a few lines:
as §1

Experiment [11] deals with ONS-76 (Other Solid Carcinomas). The experiment is described as above. The method in brief:
as §1

Experiment [12] concerns PANC-10-05 (Pancreatic Carcinoma). The description is as above. The method in brief:
as §1

Experiment [13] deals with TT (Thyroid Gland Carcinoma). The description is as above. The method in brief: as §1
Another experiment relates to U-2-OS (Osteosarcoma). The description is as above. The method in brief:
as §1

Experiment [14] deals with VCaP (Prostate Carcinoma). Described as above. In a few lines: as §1
Experiment [15] relates to IGR-37 (Melanoma). The experiment can be described thus: combination Emax (second highest fraction inhibited in the dose matrix, 72 h); higher = more inhibition; extreme values may be limits of the assay. In a few lines:
as §1
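Wherever Bliss excess, mean over the matrix is given: after 72 h of two-drug dosing.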

For the molecule `CS(=O)(=O)CCNCc1ccc(-c2ccc3ncnc(Nc4ccc(OCc5cccc(F)c5)c(Cl)c4)c3c2)o1` [Lapatinib] + NC1(c2ccc(-c3nc4ccn5c(=O)[nH]nc5c4cc3-c3ccccc3)cc2)CCC1 [MK-2206] (first compound max 10 µM, 7x7, partner max 10 µM), the Bliss excess is 0.0346 in experiment [1]; -0.0098 in experiment [2]; 0.0908 in experiment [3]; 0.0102 in [4]; 0.0211 in [5]; 0.0294 in the experiment on FU97 (Gastric Carcinoma). Further, the Bliss excess was 0.0952 in experiment [6]; 0.0428 with IGR-37 (Melanoma) [7]; -0.0122 in experiment [8]; -0.0277 in the experiment with LN-405 (Glioblastoma); -0.0046 in experiment [9]; -0.0093 in experiment [10]. For the same molecule, the Bliss excess is -0.0408 with NCI-H2591 (Mesothelioma); 0.0087 with NY (Osteosarcoma); 0.0048 in experiment [11]; -0.0218 in experiment [12]; -0.0043 in [13]; -0.029 with U-2-OS (Osteosarcoma). Moreover, the Bliss excess in experiment [14] was -0.0421. Also, in the experiment with IGR-37 (Melanoma) [15], the “combination Emax” value turned out to be 0.901.
